The target of one assay is EGFR^L58R/T790M (Homo sapiens, UniProt P00533, L858R/T790M). Put plainly: in vitro kinase assay (HTRF KinEASE-TK kit), LT. The format is biochemical. As to conditions: kinase inhibition. The source says: (§1) Assays using an in vitro kinase assay kit (HTRF KinEASE-TK kit) can be used to study the inhibitory activity of compounds described herein with respect to EGFR mutants such as EGFR^L858R, EGFR^L58R/T790M, and EGFR^L858R/T790M/C^797S.
On the technique in general: TR-FRET usually uses a lanthanide donor and a delayed reading to cut background.

A further assay concerns the target EGFR^L858R/T790M/C^797S (Homo sapiens, UniProt P00533, C797S/L858R/T790M). Nature of the assay: in vitro kinase assay (HTRF KinEASE-TK kit), LTC. The format is biochemical. The note with it: kinase inhibition.
Text: as §1

For the next assay, the target named is Ba/F3 EGFR-Del19/T790M (Homo sapiens, UniProt P00533, T790M, cells depend on it, form not given). Put plainly: Ba/F3 viability assay (CellTiter-Glo), DT. The class given is cell-based. As to conditions: anti-proliferation, read-out: BaF3 DT IC50. The gist of the method:
(§2)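 Antiproliferative activity is assessed through a cell viability read-out, run in parallel across the mutant-EGFR-driven and parental Ba/F3 cells.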

The next assay has as its target Ba/F3 EGFR-Del19/C797S (Homo sapiens, UniProt P00533, C797S, cells depend on it, form not given). Nature of the assay: Ba/F3 viability assay (CellTiter-Glo), DC. The format is cell-based. The note with it: anti-proliferation, read-out: BaF3 DC IC50. Put shortly: as §2
Background: Cellular ATP, detected with luciferase, serves as a proxy for viable cell number.

The target of the next assay is EGFR^L858R (Homo sapiens, UniProt P00533, L858R). Put plainly: in vitro kinase assay (HTRF KinEASE-TK kit), L. The note with it: kinase inhibition. The class given is biochemical.
Text: as §1

The subject of a further assay is Ba/F3 Parental. Nature of the assay: Ba/F3 viability assay (CellTiter-Glo), parental. The format is cell-based. Put shortly:
as §2

Assay [1] deals with Ba/F3 EGFR-Del19/T790M/C797S (Homo sapiens, UniProt P00533, T790M/C797S, cells depend on it, form not given). Nature of the assay: Ba/F3 viability assay (CellTiter-Glo), DTC. The format is cell-based. As to conditions: anti-proliferation, read-out: BaF3 DTC IC50. Put shortly:
as §2

Setting [2] is: Mus musculus, BaF3, anti-proliferation.

Where two headings read alike, the source gives them in different places.

Nine molecules from US20230148005A1, “MACROCYCLIC COMPOUNDS AND USES THEREOF” (THESEUS PHARMACEUTICALS, INC., priority 2020, published 2023) can be followed below.

Chain of Ba/F3 EGFR-Del19/T790M/C797S (P00533 with tags, fused parts or gaps DEL746-750/T790M/C797S, form open): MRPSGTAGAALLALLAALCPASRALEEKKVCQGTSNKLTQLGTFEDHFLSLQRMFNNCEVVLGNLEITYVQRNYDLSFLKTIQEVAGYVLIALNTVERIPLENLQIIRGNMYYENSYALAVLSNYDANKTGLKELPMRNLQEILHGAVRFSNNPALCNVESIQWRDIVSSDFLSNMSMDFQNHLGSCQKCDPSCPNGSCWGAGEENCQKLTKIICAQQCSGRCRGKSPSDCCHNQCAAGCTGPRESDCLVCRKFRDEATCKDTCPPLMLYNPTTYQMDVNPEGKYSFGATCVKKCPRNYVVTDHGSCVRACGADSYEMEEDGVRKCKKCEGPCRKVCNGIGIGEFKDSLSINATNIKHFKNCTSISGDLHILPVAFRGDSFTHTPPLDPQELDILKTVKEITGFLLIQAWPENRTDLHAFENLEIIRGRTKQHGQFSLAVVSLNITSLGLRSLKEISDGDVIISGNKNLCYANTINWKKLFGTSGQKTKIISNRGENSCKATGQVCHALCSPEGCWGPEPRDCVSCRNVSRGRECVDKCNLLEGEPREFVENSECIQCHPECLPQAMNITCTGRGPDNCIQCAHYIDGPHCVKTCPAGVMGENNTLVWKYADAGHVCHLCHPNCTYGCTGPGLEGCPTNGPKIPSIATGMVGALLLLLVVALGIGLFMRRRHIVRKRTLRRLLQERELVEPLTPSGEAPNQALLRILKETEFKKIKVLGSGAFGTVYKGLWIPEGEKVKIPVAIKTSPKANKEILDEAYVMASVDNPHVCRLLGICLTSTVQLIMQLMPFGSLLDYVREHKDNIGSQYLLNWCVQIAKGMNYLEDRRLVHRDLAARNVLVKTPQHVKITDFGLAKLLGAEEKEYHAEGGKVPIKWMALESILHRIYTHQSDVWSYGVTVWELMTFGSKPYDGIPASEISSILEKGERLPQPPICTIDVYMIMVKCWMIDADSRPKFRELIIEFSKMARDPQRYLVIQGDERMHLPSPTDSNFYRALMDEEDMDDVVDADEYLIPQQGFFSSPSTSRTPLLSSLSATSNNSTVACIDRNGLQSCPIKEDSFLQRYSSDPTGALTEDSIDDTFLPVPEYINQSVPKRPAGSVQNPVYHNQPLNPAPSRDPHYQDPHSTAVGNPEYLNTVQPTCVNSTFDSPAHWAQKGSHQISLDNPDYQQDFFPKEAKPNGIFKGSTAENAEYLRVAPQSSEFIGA
Chain of EGFR^L858R/T790M/C^797S (P00533 25-1210 T790M/C797S/L858R): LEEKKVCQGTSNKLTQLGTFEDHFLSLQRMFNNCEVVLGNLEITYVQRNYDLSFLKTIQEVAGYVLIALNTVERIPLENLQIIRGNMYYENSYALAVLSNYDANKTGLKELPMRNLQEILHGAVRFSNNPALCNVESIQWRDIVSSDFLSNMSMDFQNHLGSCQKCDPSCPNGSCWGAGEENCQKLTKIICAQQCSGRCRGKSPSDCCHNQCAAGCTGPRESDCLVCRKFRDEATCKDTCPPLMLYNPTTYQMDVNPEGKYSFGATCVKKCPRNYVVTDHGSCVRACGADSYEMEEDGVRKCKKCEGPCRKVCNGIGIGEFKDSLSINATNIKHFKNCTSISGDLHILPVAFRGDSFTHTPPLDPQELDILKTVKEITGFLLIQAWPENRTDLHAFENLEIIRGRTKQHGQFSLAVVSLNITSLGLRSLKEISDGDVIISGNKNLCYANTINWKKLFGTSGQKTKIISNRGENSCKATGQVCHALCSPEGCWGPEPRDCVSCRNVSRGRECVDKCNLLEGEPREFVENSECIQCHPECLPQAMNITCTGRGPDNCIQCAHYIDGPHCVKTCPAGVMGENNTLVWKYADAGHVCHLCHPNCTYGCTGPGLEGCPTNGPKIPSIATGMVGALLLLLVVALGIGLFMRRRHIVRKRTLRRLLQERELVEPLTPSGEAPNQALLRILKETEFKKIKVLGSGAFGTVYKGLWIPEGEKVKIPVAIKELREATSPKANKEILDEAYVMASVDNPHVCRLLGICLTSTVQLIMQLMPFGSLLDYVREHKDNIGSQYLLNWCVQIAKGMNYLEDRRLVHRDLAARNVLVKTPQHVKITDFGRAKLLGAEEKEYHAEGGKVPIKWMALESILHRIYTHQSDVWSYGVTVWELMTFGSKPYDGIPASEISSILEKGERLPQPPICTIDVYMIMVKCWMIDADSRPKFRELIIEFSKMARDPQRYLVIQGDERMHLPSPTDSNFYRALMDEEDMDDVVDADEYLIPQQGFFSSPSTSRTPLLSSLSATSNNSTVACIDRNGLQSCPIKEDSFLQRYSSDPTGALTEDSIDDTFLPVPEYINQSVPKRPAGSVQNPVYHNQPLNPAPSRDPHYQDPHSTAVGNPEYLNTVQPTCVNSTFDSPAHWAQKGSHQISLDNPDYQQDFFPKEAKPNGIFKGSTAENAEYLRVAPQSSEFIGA
Chain of Ba/F3 EGFR-Del19/T790M (P00533 with tags, fused parts or gaps DEL746-750/T790M, form open): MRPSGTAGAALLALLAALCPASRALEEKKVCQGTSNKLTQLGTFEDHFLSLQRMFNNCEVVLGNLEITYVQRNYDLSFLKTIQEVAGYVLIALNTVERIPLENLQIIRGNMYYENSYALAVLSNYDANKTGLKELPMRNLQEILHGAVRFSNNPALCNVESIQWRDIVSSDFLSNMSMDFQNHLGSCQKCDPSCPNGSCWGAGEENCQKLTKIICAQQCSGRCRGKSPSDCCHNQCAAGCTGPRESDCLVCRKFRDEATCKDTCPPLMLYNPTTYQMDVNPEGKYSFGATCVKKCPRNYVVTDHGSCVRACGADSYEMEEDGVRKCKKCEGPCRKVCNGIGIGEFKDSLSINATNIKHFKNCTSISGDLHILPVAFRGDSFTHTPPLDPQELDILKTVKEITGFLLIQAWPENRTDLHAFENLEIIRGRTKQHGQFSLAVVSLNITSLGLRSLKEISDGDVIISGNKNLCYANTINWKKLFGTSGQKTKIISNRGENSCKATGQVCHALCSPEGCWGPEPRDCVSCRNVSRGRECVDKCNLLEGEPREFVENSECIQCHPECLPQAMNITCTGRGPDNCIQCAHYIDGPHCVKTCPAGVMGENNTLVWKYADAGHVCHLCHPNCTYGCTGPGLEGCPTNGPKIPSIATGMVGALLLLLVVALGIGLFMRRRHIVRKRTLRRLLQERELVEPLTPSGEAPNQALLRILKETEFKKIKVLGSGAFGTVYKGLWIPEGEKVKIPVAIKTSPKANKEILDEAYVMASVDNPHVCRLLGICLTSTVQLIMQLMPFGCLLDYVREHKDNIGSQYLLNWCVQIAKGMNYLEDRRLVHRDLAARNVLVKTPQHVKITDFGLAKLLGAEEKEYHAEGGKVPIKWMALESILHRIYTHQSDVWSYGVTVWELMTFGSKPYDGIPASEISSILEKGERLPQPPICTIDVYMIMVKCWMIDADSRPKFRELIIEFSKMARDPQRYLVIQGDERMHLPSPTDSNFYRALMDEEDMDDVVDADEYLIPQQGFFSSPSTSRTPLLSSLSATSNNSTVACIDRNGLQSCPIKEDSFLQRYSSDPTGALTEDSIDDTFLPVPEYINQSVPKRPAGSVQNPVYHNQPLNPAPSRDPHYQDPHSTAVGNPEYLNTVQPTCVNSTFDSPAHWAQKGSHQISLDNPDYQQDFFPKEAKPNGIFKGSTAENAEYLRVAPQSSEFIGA
Chain of Ba/F3 EGFR-Del19/C797S (P00533 with tags, fused parts or gaps DEL746-750/C797S, form open): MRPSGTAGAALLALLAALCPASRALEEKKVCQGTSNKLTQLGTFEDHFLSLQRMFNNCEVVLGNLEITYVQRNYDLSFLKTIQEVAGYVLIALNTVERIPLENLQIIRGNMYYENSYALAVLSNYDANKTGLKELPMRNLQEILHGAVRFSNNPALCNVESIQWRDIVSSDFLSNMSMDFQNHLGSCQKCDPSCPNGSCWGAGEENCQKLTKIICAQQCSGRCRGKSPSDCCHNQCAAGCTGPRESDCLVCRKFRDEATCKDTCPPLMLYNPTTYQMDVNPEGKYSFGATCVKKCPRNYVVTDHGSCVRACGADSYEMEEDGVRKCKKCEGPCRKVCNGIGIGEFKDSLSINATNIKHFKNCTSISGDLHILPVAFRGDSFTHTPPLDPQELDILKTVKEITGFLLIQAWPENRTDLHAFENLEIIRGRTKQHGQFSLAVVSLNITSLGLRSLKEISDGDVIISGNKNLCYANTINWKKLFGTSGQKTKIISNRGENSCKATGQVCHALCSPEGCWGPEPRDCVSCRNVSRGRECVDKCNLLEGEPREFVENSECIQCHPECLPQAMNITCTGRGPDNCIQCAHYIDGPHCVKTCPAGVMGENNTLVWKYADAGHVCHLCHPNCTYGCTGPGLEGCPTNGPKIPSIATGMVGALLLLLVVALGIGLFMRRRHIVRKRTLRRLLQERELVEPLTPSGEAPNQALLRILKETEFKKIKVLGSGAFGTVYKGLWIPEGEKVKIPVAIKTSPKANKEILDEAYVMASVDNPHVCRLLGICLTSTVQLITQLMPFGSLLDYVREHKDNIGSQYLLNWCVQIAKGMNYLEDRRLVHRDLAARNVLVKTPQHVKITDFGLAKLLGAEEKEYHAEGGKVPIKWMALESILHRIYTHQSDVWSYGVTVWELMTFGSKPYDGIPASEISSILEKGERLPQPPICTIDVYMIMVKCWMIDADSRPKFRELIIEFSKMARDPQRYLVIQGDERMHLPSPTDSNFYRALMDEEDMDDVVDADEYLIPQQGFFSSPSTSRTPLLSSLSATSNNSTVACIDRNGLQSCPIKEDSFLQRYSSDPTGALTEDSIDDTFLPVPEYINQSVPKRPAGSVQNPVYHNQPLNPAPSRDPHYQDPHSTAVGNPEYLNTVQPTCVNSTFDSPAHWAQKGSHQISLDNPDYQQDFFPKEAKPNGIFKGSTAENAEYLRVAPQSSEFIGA

With `CC1CCOc2c(cnn2C)-c2nccc(n2)Nc2cc3c(cn2)c(-c2cnn(C4CC4)c2)nn31` (stereo not drawn) [(64)], the IC50 is under 10 nM against EGFR^L58R/T790M, under 10 nM on EGFR^L858R/T790M/C^797S, 10 to 100 nM against EGFR^L858R and 100 to 1000 nM in the assay on Ba/F3 Parental (setting [2]). Moreover, the GI50 (at Ba/F3 EGFR-Del19/T790M; on Ba/F3 EGFR-Del19/C797S; in assay [1]) was 10 to 100 nM in each case.
Turning to `C[C@H]1CCOc2c(cnn2C)-c2nccc(n2)Nc2cc3c(cn2)c(N2CC[C@H](O)C2)nn31` [(113)], the IC50 was under 10 nM at EGFR^L58R/T790M, under 10 nM at EGFR^L858R/T790M/C^797S, under 10 nM against EGFR^L858R and 100 to 1000 nM in the assay with Ba/F3 Parental (setting [2]). Further, the GI50 (on Ba/F3 EGFR-Del19/T790M; at Ba/F3 EGFR-Del19/C797S; in assay [1]) was under 10 nM throughout.
In the case of `C[C@H]1CCOc2c(cnn2C)-c2nccc(n2)Nc2cc3c(cn2)c(-c2nn(C)cc2CCN(C)C)nn31` [(155)], the IC50 at EGFR^L58R/T790M is under 10 nM; against EGFR^L858R/T790M/C^797S, under 10 nM; against EGFR^L858R, under 10 nM; in the assay with Ba/F3 Parental (setting [2]), at least 1000 nM. For the same molecule, the GI50 (on Ba/F3 EGFR-Del19/T790M; at Ba/F3 EGFR-Del19/C797S; in assay [1]) was 10 to 100 nM each time.
As for `C[C@H]1CCOc2c(cnn2C)-c2nccc(n2)Nc2cc3c(cn2)c(-c2ccncc2)nn31` [(100)], the IC50 against EGFR^L58R/T790M is under 10 nM; at EGFR^L858R/T790M/C^797S, under 10 nM; against EGFR^L858R, 10 to 100 nM; with Ba/F3 Parental (setting [2]), 100 to 1000 nM. For the same molecule, the GI50 (at Ba/F3 EGFR-Del19/T790M; on Ba/F3 EGFR-Del19/C797S; in assay [1]) was 10 to 100 nM in each case.
Regarding `C[C@H]1CCOc2c(cnn2C)-c2nccc(n2)Nc2cc3c(cn2)c(N2CC[C@H](CN(C)CCF)C2)nn31` [(169)], the IC50 on EGFR^L58R/T790M is under 10 nM; against EGFR^L858R/T790M/C^797S it was under 10 nM; against EGFR^L858R, under 10 nM; in the assay with Ba/F3 Parental (setting [2]) it was 100 to 1000 nM. Besides, the GI50 (at Ba/F3 EGFR-Del19/T790M; on Ba/F3 EGFR-Del19/C797S; in assay [1]) was under 10 nM each time.
For the molecule `C[C@H]1CCOc2c(cnn2C)-c2nccc(n2)Nc2cc3c(cn2)c(-c2cc4c(n2C)CCCN(C)C4)nn31` [(185)], the IC50 against EGFR^L58R/T790M is under 10 nM; at EGFR^L858R/T790M/C^797S, under 10 nM; on EGFR^L858R it was under 10 nM; in the assay with Ba/F3 Parental (setting [2]), 100 to 1000 nM. Further, the GI50 (at Ba/F3 EGFR-Del19/T790M; on Ba/F3 EGFR-Del19/C797S; in assay [1]) was 10 to 100 nM throughout.
As for `C[C@H]1CCOc2c(cnn2C)-c2nccc(n2)Nc2cc3c(cn2)c(-c2ccnc(N4CCN(C)CC4)c2)nn31` [(96)], the IC50 on EGFR^L58R/T790M is under 10 nM; at EGFR^L858R/T790M/C^797S, under 10 nM; against EGFR^L858R, under 10 nM; in the assay with Ba/F3 Parental (setting [2]) it was 100 to 1000 nM. Besides, the GI50 (at Ba/F3 EGFR-Del19/T790M; on Ba/F3 EGFR-Del19/C797S; in assay [1]) was 10 to 100 nM throughout.
Take `C[C@H]1CCOc2c(cnn2C)-c2nccc(n2)Nc2cc3c(cn2)c(-c2cnn(CCN(C)C)c2)nn31` [(102)]: the 50% inhibitory concentration (IC50) was under 10 nM at EGFR^L58R/T790M, under 10 nM against EGFR^L858R/T790M/C^797S, under 10 nM on EGFR^L858R and 100 to 1000 nM in the assay with Ba/F3 Parental (setting [2]). The GI50 (on Ba/F3 EGFR-Del19/T790M; at Ba/F3 EGFR-Del19/C797S; in assay [1]) was 10 to 100 nM each time.
Turning to `C[C@H]1CCOc2c(cnn2C)-c2nccc(n2)Nc2cc3c(cn2)c(N2CC[C@@H](N(C)C)C2)nn31` [(181)], the IC50 against EGFR^L58R/T790M is under 10 nM; against EGFR^L858R/T790M/C^797S, under 10 nM; against EGFR^L858R, under 10 nM; in the assay on Ba/F3 Parental (anti-proliferation, read-out: BaF3 parental IC50), 100 to 1000 nM. Besides, the GI50 (at Ba/F3 EGFR-Del19/T790M; at Ba/F3 EGFR-Del19/C797S; in assay [1]) was 10 to 100 nM throughout.

Broadly, the IC50 is the concentration that gives 50% inhibition.
